Results taken from ChEMBL document CHEMBL3603835, “Discovery of dihydroisoquinolinone derivatives as novel inhibitors of the p53-MDM2 interaction with a distinct binding mode” (Bioorg Med Chem Lett, 2015).

Legend:
[1] = biological target: Tumour suppressor p53/oncoprotein Mdm2 (Homo sapiens, UniProt Q00987); assay: Inhibition of p53-MDM2 interaction (unknown origin) by TR-FRET assay; assay type: protein assay
SJSA-1 = assay: Antiproliferative activity against p53 positive human SJSA1 cells
[2] = Antiproliferative activity against p53 deficient human Saos2 cells; conditions: SAOS-2

Sequence of Tumour suppressor p53/oncoprotein Mdm2 (P04637 whole entry): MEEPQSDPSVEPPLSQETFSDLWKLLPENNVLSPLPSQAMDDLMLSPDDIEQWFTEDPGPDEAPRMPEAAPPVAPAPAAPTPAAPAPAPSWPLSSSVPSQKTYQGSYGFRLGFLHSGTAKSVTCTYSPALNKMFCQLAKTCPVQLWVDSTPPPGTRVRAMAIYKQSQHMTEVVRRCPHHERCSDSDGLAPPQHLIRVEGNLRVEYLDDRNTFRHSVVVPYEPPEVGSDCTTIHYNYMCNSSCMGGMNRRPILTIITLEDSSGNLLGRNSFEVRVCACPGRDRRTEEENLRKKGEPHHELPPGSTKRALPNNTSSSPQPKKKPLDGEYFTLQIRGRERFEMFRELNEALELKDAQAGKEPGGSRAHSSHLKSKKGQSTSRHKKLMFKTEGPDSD
Sequence of Tumour suppressor p53/oncoprotein Mdm2 (Q00987 whole entry): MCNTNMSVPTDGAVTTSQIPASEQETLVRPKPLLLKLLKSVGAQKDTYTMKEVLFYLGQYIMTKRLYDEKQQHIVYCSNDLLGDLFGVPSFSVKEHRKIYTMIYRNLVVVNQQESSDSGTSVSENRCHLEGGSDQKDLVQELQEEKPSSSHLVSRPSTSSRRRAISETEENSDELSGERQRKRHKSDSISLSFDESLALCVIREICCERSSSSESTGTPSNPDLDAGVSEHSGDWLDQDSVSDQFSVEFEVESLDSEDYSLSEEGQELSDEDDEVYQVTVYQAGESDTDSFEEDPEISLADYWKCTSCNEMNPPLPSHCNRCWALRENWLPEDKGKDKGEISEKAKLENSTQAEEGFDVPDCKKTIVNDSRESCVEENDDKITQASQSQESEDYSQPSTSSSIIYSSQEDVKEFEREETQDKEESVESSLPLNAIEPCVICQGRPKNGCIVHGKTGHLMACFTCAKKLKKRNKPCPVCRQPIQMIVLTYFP

Row | SMILES | IC50 [1] | IC50 (SJSA-1) | IC50 [2]
1 | CCOc1cc2c(cc1OCC)C(c1ccc(Cl)cc1)N(c1ccc(Cl)cc1)C(=O)C2 (racemic) | 1000 nM |  | 
2 | CCOc1cc2c(cc1OCC)C(c1ccc(Cl)cc1)N(c1cccc(Cl)c1)C(=O)C2 (racemic) | 1400 nM |  | 
3 | CCOc1cc2c(cc1OCC)C(c1ccc(Cl)cc1)N(c1ccc(OC)cc1)C(=O)C2 (racemic) | 540 nM | 16600 nM | 19600 nM
4 | CC[C@@H](C)Oc1cc2c(cc1OC)CC(=O)N(c1ccc(N(C)Cc3cccc(F)c3)cc1)C2c1ccc(Cl)cc1 (some centres not stated) | 170 nM |  | 

Second part, led by results:

Row | IC50 [1] | IC50 (SJSA-1) | SMILES | IC50 [2]
5 | 120 nM |  | CC[C@@H](C)Oc1cc2c(cc1OC)CC(=O)N(c1ccc(N(C)Cc3ccc(F)cc3)cc1)C2c1ccc(Cl)cc1 (some centres not stated) | 
6 |  | 29600 nM | CC[C@@H](C)Oc1cc2c(cc1OC)CC(=O)N(c1ccc(N(C)Cc3ccncc3)cc1)[C@@H]2c1ccc(Cl)cc1 | > 30000 nM
7 | 15 nM |  | CC[C@@H](C)Oc1cc2c(cc1OC)CC(=O)N(c1ccc(N(C)Cc3cccnc3)cc1)C2c1ccc(Cl)cc1 (some centres not stated) | 
8 |  | 1200 nM | CC[C@@H](C)Oc1cc2c(cc1OC)CC(=O)N(c1ccc(N(C)Cc3ccncc3)cc1)[C@H]2c1ccc(Cl)cc1 | 12000 nM
